Here are results for 15 compounds from PubChem BioAssay AID248 (DTP/NCI, 2004).

“And” between values parts separate entries of the source, which are not always exact repeats. Equal values may be shown once. Toxic doses and inconclusive results are not listed.

The test system of this assay is L1210 leukemia ip in BDF1 mice, survival T/C. Kind of assay: NCI In Vivo Anticancer Drug Screen. Data for tumor model L1210 Leukemia (intraperitoneal) in B6D2F1 (BDF1) mice. As to conditions: endpoint: mean survival time, higher = longer survival. A digest of the protocol: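 Transplanted-tumor mice were given test agent; controls received vehicle only. Survival readings from the two groups were divided (treated over control).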

Where [1] appears, read: dose: 100.0 mg/kg/injection, schedule: Q04DX003 (ip), vehicle: Klucel (hydroxypropylcellulose) (HPC).
The mark [2] stands for this setting: dose: 200.0 mg/kg/injection, schedule: Q04DX003 (ip), vehicle: Klucel (hydroxypropylcellulose) (HPC).
The mark [3] stands for this setting: dose: 400.0 mg/kg/injection, schedule: Q04DX003 (ip), vehicle: Klucel (hydroxypropylcellulose) (HPC).
Setting [4] is: dose: 50.0 mg/kg/injection, schedule: Q01DX009 (ip), vehicle: saline with Tween-80.
[5] abbreviates: dose: 100.0 mg/kg/injection, schedule: Q01DX009 (ip), vehicle: saline with Tween-80.
Setting [6] is: dose: 100.0 mg/kg/injection, schedule: Q01DX009 (ip), vehicle: Klucel (hydroxypropylcellulose) (HPC).
Where [7] appears, read: dose: 200.0 mg/kg/injection, schedule: Q01DX009 (ip), vehicle: Klucel (hydroxypropylcellulose) (HPC).
Setting [8] is: dose: 400.0 mg/kg/injection, schedule: Q01DX009 (ip), vehicle: Klucel (hydroxypropylcellulose) (HPC).
[9] abbreviates: dose: 100.0 mg/kg/injection, schedule: Q04DX003 (ip), vehicle: saline.
Where [10] appears, read: dose: 200.0 mg/kg/injection, schedule: Q04DX003 (ip), vehicle: saline.
Where [11] appears, read: dose: 400.0 mg/kg/injection, schedule: Q04DX003 (ip), vehicle: saline.
The mark [12] stands for this setting: dose: 100.0 mg/kg/injection, schedule: Q04DX003 (ip), vehicle: saline with Tween-80.
Setting [13] is: dose: 50.0 mg/kg/injection, schedule: Q01DX001 (ip), vehicle: saline.
The mark [14] stands for this setting: dose: 100.0 mg/kg/injection, schedule: Q01DX001 (ip), vehicle: saline.
The mark [15] stands for this setting: dose: 200.0 mg/kg/injection, schedule: Q01DX001 (ip), vehicle: saline.
Where [16] appears, read: dose: 400.0 mg/kg/injection, schedule: Q01DX001 (ip), vehicle: saline.

Take `COC(=O)/C=C\C(=O)OC`: the T/C is 95 % of control under setting [1], 100 % of control under setting [2] and 100 % of control under setting [3].
For the compound `O=C1NC(=O)C2C3C=CC(C12)C1C2C(=O)NC(=O)C2C31` (stereo not given), the T/C runs as follows: (dose: 12.5 mg/kg/injection, schedule: Q01DX009 (ip), vehicle: saline with Tween-80) 102 % of control; (dose: 25.0 mg/kg/injection, schedule: Q01DX009 (ip), vehicle: saline with Tween-80) 95 % of control; under setting [4], 111 % of control; under setting [5], 178 % of control; (dose: 400.0 mg/kg/injection, schedule: Q01DX009 (ip), vehicle: saline with Tween-80) 90 % of control.
As to `O=C(c1cccc(C(=O)N(c2ccccc2)C2CCCCC2)c1)N(c1ccccc1)C1CCCCC1`, the T/C was 100 % of control under setting [6], 94 % of control under setting [7] and 98 % of control under setting [8].
For the compound `Cc1cccc2c(Nc3ccc(NS(C)(=O)=O)cc3)c3ccccc3nc12`, the T/C (dose: 2.5 mg/kg/injection, schedule: Q01DX009 (ip), vehicle: Klucel (hydroxypropylcellulose) (HPC)) was 115 % of control; the T/C (dose: 5.0 mg/kg/injection, schedule: Q01DX009 (ip), vehicle: Klucel (hydroxypropylcellulose) (HPC)) is 115 % of control; the T/C (dose: 10.0 mg/kg/injection, schedule: Q01DX009 (ip), vehicle: Klucel (hydroxypropylcellulose) (HPC)) is 117 % of control; the T/C (dose: 10.0 mg/kg/injection, schedule: Q01DX009 (ip), vehicle: saline with Tween-80) is 120 % of control; the T/C (dose: 10.0 mg/kg/injection, schedule: Q01DX009 (sc), vehicle: saline) was 112 % of control; the T/C (dose: 20.0 mg/kg/injection, schedule: Q01DX001 (ip), vehicle: saline with Tween-80) was 121 % of control. Also, the T/C by setting is: (dose: 20.0 mg/kg/injection, schedule: Q01DX009 (ip), vehicle: Klucel (hydroxypropylcellulose) (HPC)) 224 % of control; (dose: 20.0 mg/kg/injection, schedule: Q01DX009 (ip), vehicle: saline with Tween-80) 166 % of control; (dose: 20.0 mg/kg/injection, schedule: Q01DX009 (sc), vehicle: saline) 110 % of control; (dose: 40.0 mg/kg/injection, schedule: Q01DX001 (ip), vehicle: saline with Tween-80) 117 % of control; (dose: 40.0 mg/kg/injection, schedule: Q01DX009 (ip), vehicle: Klucel (hydroxypropylcellulose) (HPC)) 103 % of control; (dose: 40.0 mg/kg/injection, schedule: Q01DX009 (ip), vehicle: saline with Tween-80) 178 % of control. Moreover, the T/C was 113 % of control (dose: 40.0 mg/kg/injection, schedule: Q01DX009 (sc), vehicle: saline); 159 % of control (dose: 40.0 mg/kg/injection, schedule: Q04DX003 (ip), vehicle: saline with Tween-80); 116 % of control (dose: 80.0 mg/kg/injection, schedule: Q01DX009 (ip), vehicle: saline with Tween-80); 164 % of control (dose: 80.0 mg/kg/injection, schedule: Q04DX003 (ip), vehicle: Klucel (hydroxypropylcellulose) (HPC)); 151 % of control (dose: 80.0 mg/kg/injection, schedule: Q04DX003 (ip), vehicle: saline with Tween-80); 123 % of control under setting [9]. Further, the T/C was 206 % of control (dose: 160.0 mg/kg/injection, schedule: Q04DX003 (ip), vehicle: Klucel (hydroxypropylcellulose) (HPC)); 168 % of control (dose: 160.0 mg/kg/injection, schedule: Q04DX003 (ip), vehicle: saline with Tween-80); 167 % of control under setting [10]; 94 % of control under setting [11].
For `CCCCOB(OCCCC)C(C)C(C#N)C#N` (stereo not given), the T/C by setting is: (dose: 100.0 mg/kg/injection, schedule: Q01DX009 (ip), vehicle: saline sonified) 94 % of control; under setting [12], 110 % of control; (dose: 200.0 mg/kg/injection, schedule: Q01DX009 (ip), vehicle: saline sonified) 92 % of control; (dose: 200.0 mg/kg/injection, schedule: Q04DX003 (ip), vehicle: saline with Tween-80) 98 % of control; (dose: 400.0 mg/kg/injection, schedule: Q01DX009 (ip), vehicle: saline sonified) 89 % of control; (dose: 400.0 mg/kg/injection, schedule: Q04DX003 (ip), vehicle: saline with Tween-80) 93 % of control.
Take `Brc1cc(Br)c(N=Nc2c(Br)cc(Br)cc2Br)c(Br)c1`: the T/C reads like this: under setting [13], 95 % of control; under setting [14], 95 % of control; under setting [15], 95 % of control; under setting [16], 101 % of control.
For `CC(CCC(CCCCC(CCC(C)CC(C)(C)C)CCC(C)CC(C)(C)C)CCC(C)CC(C)(C)C)CC(C)(C)C` (stereo not given), the T/C is, setting by setting: (dose: 75.0 mg/kg/injection, schedule: Q01DX001 (ip), vehicle: saline with Tween-80) 103 % of control; (dose: 150.0 mg/kg/injection, schedule: Q01DX001 (ip), vehicle: saline with Tween-80) 98 % of control; (dose: 300.0 mg/kg/injection, schedule: Q01DX001 (ip), vehicle: saline with Tween-80) 98 % of control.
Turning to `CC12C=CC(=O)C=C1CCC1C3CCC(O)(C(=O)CO)C3(C)CC(O)C12F` (stereo not given), the T/C runs as follows: (dose: 25.0 mg/kg/injection, schedule: Q04DX003 (sc), vehicle: steriod suspending solution) 108 % of control; (dose: 50.0 mg/kg/injection, schedule: Q04DX003 (sc), vehicle: steriod suspending solution) 106 % of control; (dose: 100.0 mg/kg/injection, schedule: Q04DX003 (sc), vehicle: steriod suspending solution) 123 % of control; (dose: 150.0 mg/kg/injection, schedule: Q04DX003 (sc), vehicle: steriod suspending solution) 100 % of control; (dose: 225.0 mg/kg/injection, schedule: Q04DX003 (sc), vehicle: steriod suspending solution) 111 % of control; (dose: 335.0 mg/kg/injection, schedule: Q04DX003 (sc), vehicle: steriod suspending solution) 105 % of control.
With `Nc1ccc(CC(=O)O)cc1`, the T/C was 97 % of control (dose: 100.0 mg/kg/injection, schedule: Q01DX001 (ip), vehicle: Klucel (hydroxypropylcellulose) (HPC)); 101 % of control (dose: 200.0 mg/kg/injection, schedule: Q01DX001 (ip), vehicle: Klucel (hydroxypropylcellulose) (HPC)); 88 % of control (dose: 400.0 mg/kg/injection, schedule: Q01DX001 (ip), vehicle: Klucel (hydroxypropylcellulose) (HPC)).
Take `N#CCCOC(=O)CCC(=O)OCCC#N`: the T/C was 104 % of control (dose: 100.0 mg/kg/injection, schedule: Q01DX001 (ip), vehicle: other); 100 % of control (dose: 200.0 mg/kg/injection, schedule: Q01DX001 (ip), vehicle: other); 102 % of control (dose: 400.0 mg/kg/injection, schedule: Q01DX001 (ip), vehicle: other).
As to `COC(=O)c1c2c(nc3ccccc13)-c1ccccc1C(C)(C)C2Br` (stereo not given), the T/C is 95 % of control under setting [1], 92 % of control under setting [2] and 95 % of control under setting [3].
Consider `COC1=C(N2CC2)C(=O)c2ccccc2C1=O`, for which the T/C (dose: 25.0 mg/kg/injection, schedule: Q04DX003 (ip), vehicle: saline with Tween-80) was 109 % of control; the T/C (dose: 50.0 mg/kg/injection, schedule: Q04DX003 (ip), vehicle: saline with Tween-80) is 101 % of control; the T/C under setting [12] was 101 % of control and 108 % of control.
For the compound `CC(C)OB(OC(C)C)OC(C)C`, the T/C runs as follows: under setting [6], 103 % of control; under setting [1], 104 % of control; under setting [7], 103 % of control; under setting [2], 95 % of control; under setting [8], 102 % of control; under setting [3], 100 % of control.
For `Cc1ccc(C)c(S(=O)(=O)OCC#CCOS(=O)(=O)c2cc(C)ccc2C)c1`, the T/C by setting is: under setting [4], 92 % of control; under setting [5], 92 % of control; under setting [9], 97 % of control; (dose: 200.0 mg/kg/injection, schedule: Q01DX009 (ip), vehicle: saline with Tween-80) 87 % of control; under setting [10], 97 % of control; under setting [11], 91 % of control.
On to `O=C(Nc1ncccn1)C(F)(F)F`, for which the T/C was 95 % of control under setting [13], 92 % of control under setting [14], 95 % of control under setting [15] and 90 % of control under setting [16].
